Literature values as cited in patent publication US7300768B2 (Saladax Biomedical Inc., priority 2004, dated 2007).

Conditions: imatinib and its salts; Gleevec package insert, Pindolia et al.

Structure (SMILES): Cc1ccc(NC(=O)c2ccc(CN3CCN(C)CC3)cc2)cc1Nc1nccc(-c2cccnc2)n1 [imatinib]
- degree of intra- and inter-individual pharmacokinetic variability: four fold
